What was measured:
[1] = target: T1, Serine/threonine-protein kinase pim-2 (Homo sapiens, UniProt Q9P1W9); experiment: Inhibition of Pim2
[2] = target: T2, Serine/threonine-protein kinase pim-1 (Homo sapiens, UniProt P11309); experiment: Inhibition of Pim1 in presence of 1 uM ATP
[3] = target: T1, Serine/threonine-protein kinase pim-2; experiment: Inhibition of Pim2 in presence of 1 uM ATP
[4] = target: Casein kinase II subunit alpha (Homo sapiens) (UniProt P68400); experiment: Inhibition of CK2alpha1 at 10 uM
[5] = target: Casein kinase II subunit alpha' (Homo sapiens) (UniProt P19784); experiment: Inhibition of CK2alpha2 at 10 uM
[6] = Metabolic stability in human liver microsomes assessed as half life by HPLC; type: ADME, Microsome
[7] = Permeability from apical to basolateral side of human Caco-2 cells at 50 uM by LC/MS-MS analysis; type: ADME, cell-based; conditions: read-out: permeability
[8] = Solubility at pH 7.4 after 48 hrs by HPLC; type: physicochemical; conditions: buffer
[9] = Solubility at pH 2.0 after 48 hrs by HPLC; type: physicochemical; conditions: buffer
[10] = Permeability from basolateral to apical side of human Caco-2 cells at 50 uM by LC/MS-MS analysis; type: ADME, cell-based; conditions: read-out: permeability
[11] = target: T2, Serine/threonine-protein kinase pim-1; experiment: Inhibition of Pim1 after 15 mins by scintillation counting-based competition assay in presence of 100 uM [gamma33P]ATP

O=C(O)/C=C/c1cccc(-c2cncc(N3CCCNCC3)n2)c1
IC50 [1]: 10 nM

NCCCCNc1cncc(-c2cccc(/C=C/C(=O)O)c2)n1
IC50 [2]: 33 nM | IC50 [3]: 22 nM

O=C(O)/C=C/c1cccc(-c2cnccn2)c1
IC50 [1]: 2200 nM

CN1CCCN(c2cncc(-c3cccc(/C=C/C(N)=O)c3)n2)CC1
inhibition [4]: 42% | inhibition [5]: 36%

CN1CCCN(c2cccc(-c3cccc(/C=C/C(=O)O)c3)n2)CC1
IC50 [1]: 46 nM | IC50 [2]: 50 nM

O=C(O)/C=C/c1cccc(-c2cncc(NCC3CCNCC3)n2)c1
IC50 [1]: 25 nM

NCC1CCN(c2cncc(-c3cccc(/C=C/C(=O)O)c3)n2)CC1
IC50 [1]: 17 nM

CN1CCCN(c2cncc(-c3cccc(/C=C/C(=O)O)c3)n2)CC1
half-life [6]: 2.65 h | Papp A→B at 50 µM [7]: 2.73 ×10⁻⁶ cm/s | solubility at 48 h [8]: > 2000 µg/mL | solubility at 48 h [9]: > 2000 µg/mL | Papp B→A at 50 µM [10]: 3.01 ×10⁻⁶ cm/s

O=C(O)c1ccc(-c2cnc3ccc(NCC4CC4)nn23)cc1
IC50 [11]: 120 nM

COC(=O)/C=C/c1cccc(-c2cncc(N3CCCN(C)CC3)n2)c1
inhibition [4]: 14% | IC50 [1]: > 8000 nM | inhibition [5]: 7%

COCCCNc1cncc(-c2cccc(/C=C/C(=O)O)c2)n1
IC50 [2]: 370 nM | IC50 [3]: 480 nM
